This note sets out measurements from USRE47689E1, “Compounds for treating spinal muscular atrophy” (PTC Therapeutics, Inc., priority 2011, dated 2019).

In one series the test system is Smn protein. Nature of the series: Smn protein assay in cultured cells (SMN HTRF). Type of series: cell-based, human. Particulars: 48 hours; for maximum fold (Fold) increase of Smn protein: SMA patient fibroblast cells, 7-point concentration data, fold increase relative to vehicle control (SMN HTRF); for EC1.5x (concentration giving 1.5-fold Smn protein increase): SMA Type 1 patient fibroblast cells (GM03813), 7-point concentration curve, SMN HTRF, concentration producing 1.5 times Smn protein vs DMSO vehicle control, read-out: EC1.5x for Smn protein expression. In a few lines:
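Smn in SMA fibroblast lysates, measured by anti-SMN HTRF after 48 h compound exposure; EC1.5x from fold change over vehicle.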
(In general: In TR-FRET formats the signal depends on donor and acceptor labels being close together.)

For series [1], the system named is SMN2 minigene (full length SMN2 minigene mRNA containing SMN2 exon 7). Nature of the series: SMN2 minigene mRNA splicing RT-qPCR assay in cultured cells. The format is cell-based, human. The note with it: Homo sapiens, HEK293-H, read-out: EC1.5x for production of full length SMN2 mRNA. In short, it runs like this:
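Full-length SMN2 minigene mRNA (exon 7 included), minigene-specific and not endogenous SMN, quantified by RT-qPCR multiplexed with GAPDH in stably transfected HEK293H cells after 24 h compound exposure at 37° C. Abundance from efficiency-corrected Ct, normalized to GAPDH and vehicle; EC1.5x reported as star bins.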

[2] abbreviates: HEK293H cells stably transfected with SMN2-A minigene, 24 hours, 7-point concentration curve, 1.5-fold relative to vehicle-treated cells.

Like-named read-outs stand apart in the source and are kept apart here.

The term melting point denotes the temperature, or range, at which the solid turns liquid.

In turn, `Cc1ccc2nc(-c3cc4ccc(N5CCN[C@H](C)C5)cc4oc3=O)cn2c1` [Compound 220, 3-(6-methylimidazo[1,2-a]pyridin-2-yl)-7-[(3R)-3-methylpiperazin-1-yl]-2H-chromen-2-one] displayed a melting point of 185 to 188 °C. For the same compound, the “maximum fold (Fold) increase of Smn protein” value (“maximum fold (Fold) increase” for short) with Smn protein is “** (fold increase between >1.2 and ≤1.35)”. The EC (1.5-fold) in series [1] (setting [2]) lay in the range of 0.1 to 0.3 µM.

As to `Cc1cn2cc(-c3cc4ccc(N5CCN6C[C@H](O)C[C@H]6C5)cc4oc3=O)nc2c(C)n1` [Compound 758, 3-(6,8-dimethylimidazo[1,2-a]pyrazin-2-yl)-7-[(7R,8aS)-7-hydroxyhexahydropyrrolo[1,2-a]pyrazin-2(1H)-yl]-2H-chromen-2-one], the melting point is 285 to 287 °C. The “maximum fold (Fold) increase” value with Smn protein is “* (maximum fold increase of ≤1.2)”. In series [1] (setting [2]), the EC (1.5-fold) was 0.3 to 1 µM.

In turn, `Cl.O=c1oc2cc(OC3CCNCC3)ccc2cc1-c1cn2cccnc2n1` [Compound 197, 3-(imidazo[1,2-a]pyrimidin-2-yl)-7-(piperidin-4-yloxy)-2H-chromen-2-one hydrochloride] returned a melting point above 310 °C. Moreover, in the series with Smn protein, the “maximum fold (Fold) increase” value was “** (fold increase between >1.2 and ≤1.35)”. Further, the EC (1.5-fold) in series [1] (setting [2]) lay within 0.3 to 1 µM.

On to `C[C@@H]1CN(c2cc(F)c3cc(-c4cn5ccc(C(F)(F)F)cc5n4)c(=O)oc3c2)C[C@H](C)N1` [Cpd 391, 7-[(3R,5S)-3,5-dimethylpiperazin-1-yl]-5-fluoro-3-[7-(trifluoromethyl)imidazo[1,2-a]pyridin-2-yl]-2H-chromen-2-one], for which the melting point lay in the range of 210 to 219 °C. Besides, the “maximum fold (Fold) increase” value in the series on Smn protein was “** (fold increase between >1.2 and ≤1.35)”. In addition, in series [1] (setting [2]), the EC (1.5-fold) was in the range of 1 to 3 µM.

For the compound `Cc1cn2cc(-c3cc4ccc(N5C[C@@H](O)[C@H](N6CCCC6)C5)cc4oc3=O)cc2c(C)n1` [Compound 751, 3-(1,3-dimethylpyrrolo[1,2-a]pyrazin-7-yl)-7-[(3′R,4′R)-4′-hydroxy-1,3′-bipyrrolidin-1′-yl]-2H-chromen-2-one], the melting point lay within 264 to 268 °C. Also, the “maximum fold (Fold) increase” value with Smn protein was “** (fold increase between >1.2 and ≤1.35)”. For the same compound, in series [1] (setting [2]), the EC (1.5-fold) is below 0.1 µM.

Compound `Cc1cn2cc(-c3cc4ccc(N5CCN6C[C@H](O)C[C@H]6C5)cc4oc3=O)cc2c(C)n1` [Compound 767, 3-(1,3-dimethylpyrrolo[1,2-a]pyrazin-7-yl)-7-[(7R,8aS)-7-hydroxyhexahydropyrrolo[1,2-a]pyrazin-2(1H)-yl]-2H-chromen-2-one] returned a melting point of 185 to 188 °C. In the series with Smn protein, the EC1.5x (concentration giving 1.5-fold Smn protein increase) is below 300 nM and the “maximum fold (Fold) increase” value is recorded as “***** (fold increase >1.65)”. The EC (1.5-fold) in series [1] (setting [2]) was below 0.1 µM.

In the case of `Cc1cc2oc(-c3cc4ccc(N5CCN(C(C)C)CC5)cc4oc3=O)cc2c(C)n1` [Compound 840, 3-(4,6-dimethylfuro[3,2-c]pyridin-2-yl)-7-[4-(propan-2-yl)piperazin-1-yl]-2H-chromen-2-one], the melting point lay in the range of 186 to 191 °C. Further, the “maximum fold (Fold) increase” value in the series with Smn protein is reported as “* (maximum fold increase of ≤1.2)”. For the same compound, the EC (1.5-fold) in series [1] (setting [2]) was in the range of 0.3 to 1 µM.

With `CN(C)[C@H]1CCN(c2ccc3cc(-c4cn5cccc(Cl)c5n4)c(=O)oc3c2)C1` [Compound 122, 3-(8-chloroimidazo[1,2-a]pyridin-2-yl)-7-[(3S)-3-(dimethylamino)pyrrolidin-1-yl]-2H-chromen-2-one], the melting point was 238 to 241 °C. Moreover, the “maximum fold (Fold) increase” value in the series on Smn protein is reported as “* (maximum fold increase of ≤1.2)”. For the same compound, in series [1] (setting [2]), the EC (1.5-fold) was 1 to 3 µM.

For `CC(CO)NCc1ccc2cc(-c3nc4c(Cl)cccc4s3)c(=O)oc2c1` (centres unmarked) [Compound 270, 3-(4-chloro-1,3-benzothiazol-2-yl)-7-{[(1-hydroxypropan-2-yl)amino]methyl}-2H-chromen-2-one], the melting point lay in the range of 186 to 190 °C. Also, the “maximum fold (Fold) increase” value in the series on Smn protein is “** (fold increase between >1.2 and ≤1.35)”. The EC (1.5-fold) in series [1] (setting [2]) is 1 to 3 µM.

Regarding `COc1ccc(-c2cc3ccc(N4CCN[C@@H](C)C4)cc3oc2=O)c(OC)c1` [Compound 467, 3-(2,4-dimethoxyphenyl)-7-[(3S)-3-methylpiperazin-1-yl]-2H-chromen-2-one], the melting point fell in the range of 103 to 105 °C. Moreover, in the series with Smn protein, the “maximum fold (Fold) increase” value is recorded as “* (maximum fold increase of ≤1.2)”. The EC (1.5-fold) in series [1] (setting [2]) lay within 3 to 30 µM.

For `Cc1cc(F)cn2cc(-c3cc4ccc(N5C[C@@H](C)N[C@@H](C)C5)cc4oc3=O)nc12` [Compound 331, 7-[(3R,5S)-3,5-dimethylpiperazin-1-yl]-3-(6-fluoro-8-methylimidazo[1,2-a]pyridin-2-yl)-2H-chromen-2-one], the melting point is 290 to 300 °C. In addition, the “maximum fold (Fold) increase” value in the series on Smn protein is listed as “* (maximum fold increase of ≤1.2)”. Moreover, the EC (1.5-fold) in series [1] (setting [2]) fell in the range of 0.3 to 1 µM.

`Cc1nn2cc(-c3cc4ccc(N5CCCN(C)CC5)cc4oc3=O)nc2s1` [Compound 451, 7-(4-methyl-1,4-diazepan-1-yl)-3-(2-methylimidazo[2,1-b][1,3,4]thiadiazol-6-yl)-2H-chromen-2-one] came in with a melting point of 191 to 195 °C. Also, the “maximum fold (Fold) increase” value in the series on Smn protein is “*** (fold increase between >1.35 and ≤1.5)”. For the same compound, the EC (1.5-fold) in series [1] (setting [2]) lay in the range of 1 to 3 µM.

`Cc1cn2cc(-c3cc4ccc(CCN5CCOCC5)cc4oc3=O)nc2c(C)n1` [Compound 886, 3-(6,8-dimethylimidazo[1,2-a]pyrazin-2-yl)-7-[2-(morpholin-4-yl)ethyl]-2H-chromen-2-one] registered a melting point of 180 to 184 °C. In the series on Smn protein, the EC1.5x (concentration giving 1.5-fold Smn protein increase) is 300 to 1000 nM and the “maximum fold (Fold) increase” value is “***** (fold increase >1.65)”. For the same compound, the EC (1.5-fold) in series [1] (setting [2]) fell in the range of 0.3 to 1 µM.

Consider `O=c1oc2cc(N3CCNCC3)c(F)cc2cc1-c1nc2ccccc2s1` [Compound 157, 3-(1,3-benzothiazol-2-yl)-6-fluoro-7-(piperazin-1-yl)-2H-chromen-2-one], for which the melting point was 255 to 260 °C. In addition, the “maximum fold (Fold) increase” value with Smn protein is “* (maximum fold increase of ≤1.2)”. For the same compound, the EC (1.5-fold) in series [1] (24 h) fell in the range of 0.1 to 0.3 µM.

With `Cc1ccn2nc(-c3cc4ccc(N5CCNCC5)cc4oc3=O)cc2c1` [Compound 302, 3-(5-methylpyrazolo[1,5-a]pyridin-2-yl)-7-(piperazin-1-yl)-2H-chromen-2-one], the melting point was 228 to 231 °C. In the series with Smn protein, the EC1.5x (concentration giving 1.5-fold Smn protein increase) lay within 300 to 1000 nM; the “maximum fold (Fold) increase” value is “*** (fold increase between >1.35 and ≤1.5)”. Also, the EC (1.5-fold) in series [1] (setting [2]) lay in the range of 0.1 to 0.3 µM.

The compound `O=c1oc2cc(N3CCNCC3)ccc2cc1-c1cc2ccccc2s1` [Compound 407, 3-(1-benzothiophen-2-yl)-7-(piperazin-1-yl)-2H-chromen-2-one] returned a melting point of 243 to 245 °C. Moreover, the “maximum fold (Fold) increase” value with Smn protein is on record as “* (maximum fold increase of ≤1.2)”. Also, the EC (1.5-fold) in series [1] (setting [2]) was 0.3 to 1 µM.

In turn, `Cc1cn2cc(-c3cc4ccc(N5CCNCC5)cc4oc3=O)cc2c(C)n1` [Compound 670, 3-(1,3-dimethylpyrrolo[1,2-a]pyrazin-7-yl)-7-(piperazin-1-yl)-2H-chromen-2-one] displayed a melting point of 186 to 189 °C. For the same compound, in the series on Smn protein, the EC1.5x (concentration giving 1.5-fold Smn protein increase) was below 300 nM and the “maximum fold (Fold) increase” value is “***** (fold increase >1.65)”. Further, the EC (1.5-fold) in series [1] (setting [2]) is below 0.1 µM.

`Cc1cn2cc(-c3cc4ccc(N5CCN(C)[C@@H](C)C5)cc4oc3=O)nc2c(C)n1` [Compound 672, 3-(6,8-dimethylimidazo[1,2-a]pyrazin-2-yl)-7-[(3S)-3,4-dimethylpiperazin-1-yl]-2H-chromen-2-one] registered a melting point of 211 to 215 °C. For the same compound, in the series on Smn protein, the EC1.5x (concentration giving 1.5-fold Smn protein increase) is below 300 nM; the “maximum fold (Fold) increase” value is “**** (fold increase between >1.5 and ≤1.65)”. In addition, the EC (1.5-fold) in series [1] (setting [2]) was below 0.1 µM.

Compound `CN1CCCN(c2ccc3cc(-c4cn5cc(Cl)ccc5n4)c(=O)oc3c2)CC1` [Compound 92, 3-(6-chloroimidazo[1,2-a]pyridin-2-yl)-7-(4-methyl-1,4-diazepan-1-yl)-2H-chromen-2-one] returned a melting point of 186 to 189 °C. The “maximum fold (Fold) increase” value in the series on Smn protein was “*** (fold increase between >1.35 and ≤1.5)”. The EC (1.5-fold) in series [1] (setting [2]) was 1 to 3 µM.

With `Cc1ccc2nc(-c3cc4ccc(N5C[C@@H](C)N[C@@H](C)C5)cc4oc3=O)cn2c1` [Compound 174, 7-[(3R,5S)-3,5-dimethylpiperazin-1-yl]-3-(6-methylimidazo[1,2-a]pyridin-2-yl)-2H-chromen-2-one], the melting point lay within 235 to 237 °C. In addition, in the series with Smn protein, the “maximum fold (Fold) increase” value was “*** (fold increase between >1.35 and ≤1.5)”. In addition, the EC (1.5-fold) in series [1] (setting [2]) is below 0.1 µM.

Turning to `COc1ccc(-c2cc3ccc(N4CCN[C@H](C)C4)cc3oc2=O)cc1` [Compound 448, 3-(4-methoxyphenyl)-7-[(3R)-3-methylpiperazin-1-yl]-2H-chromen-2-one], the melting point was in the range of 123 to 126 °C. The “maximum fold (Fold) increase” value in the series with Smn protein was “* (maximum fold increase of ≤1.2)”. Further, the EC (1.5-fold) in series [1] (setting [2]) fell in the range of 1 to 3 µM.
